Assay results as given in paper PMC3961306, “Comparison of the Cancer Gene Targeting and Biochemical Selectivities of All Targeted Kinase Inhibitors Approved for Clinical Use” (PLoS ONE, 2014).

Tests used:
Assay in all cases: Kinase profiling in a biochemical assay panel (mobility shift assays and ELISA), %-inhibition at 1 μM; selectivity entropy
[1] = target: T1, panel of more than 300 wild-type and mutant kinases (313 kinase panel) (Homo sapiens, UniProt P42681)
T1 sequence (P42681 1-527): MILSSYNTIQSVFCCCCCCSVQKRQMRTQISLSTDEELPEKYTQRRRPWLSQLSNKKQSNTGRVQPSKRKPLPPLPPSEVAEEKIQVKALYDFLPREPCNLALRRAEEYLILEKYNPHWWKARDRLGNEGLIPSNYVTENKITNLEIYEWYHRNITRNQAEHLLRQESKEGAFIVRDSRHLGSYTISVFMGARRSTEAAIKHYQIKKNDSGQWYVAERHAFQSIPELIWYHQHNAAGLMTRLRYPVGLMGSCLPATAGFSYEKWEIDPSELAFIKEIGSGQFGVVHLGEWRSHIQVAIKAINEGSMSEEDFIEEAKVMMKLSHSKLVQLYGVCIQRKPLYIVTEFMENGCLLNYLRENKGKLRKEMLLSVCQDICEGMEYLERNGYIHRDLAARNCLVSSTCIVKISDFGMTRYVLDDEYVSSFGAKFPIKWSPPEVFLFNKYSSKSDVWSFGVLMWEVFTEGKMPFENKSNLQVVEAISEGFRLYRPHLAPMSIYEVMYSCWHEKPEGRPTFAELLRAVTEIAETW

[2] = target: panel of more than 300 wild-type and mutant kinases (313 kinase panel) (Homo sapiens, UniProt Q05655)
[3] = target: panel of more than 300 wild-type and mutant kinases (313 kinase panel) (Homo sapiens, UniProt Q06187)
[4] = target: panel of more than 300 wild-type and mutant kinases (313 kinase panel) (Homo sapiens, UniProt Q16620)
[5] = target: T2, panel of more than 300 wild-type and mutant kinases (313 kinase panel) (Homo sapiens, UniProt O15111)
T2 sequence (O15111 1-745): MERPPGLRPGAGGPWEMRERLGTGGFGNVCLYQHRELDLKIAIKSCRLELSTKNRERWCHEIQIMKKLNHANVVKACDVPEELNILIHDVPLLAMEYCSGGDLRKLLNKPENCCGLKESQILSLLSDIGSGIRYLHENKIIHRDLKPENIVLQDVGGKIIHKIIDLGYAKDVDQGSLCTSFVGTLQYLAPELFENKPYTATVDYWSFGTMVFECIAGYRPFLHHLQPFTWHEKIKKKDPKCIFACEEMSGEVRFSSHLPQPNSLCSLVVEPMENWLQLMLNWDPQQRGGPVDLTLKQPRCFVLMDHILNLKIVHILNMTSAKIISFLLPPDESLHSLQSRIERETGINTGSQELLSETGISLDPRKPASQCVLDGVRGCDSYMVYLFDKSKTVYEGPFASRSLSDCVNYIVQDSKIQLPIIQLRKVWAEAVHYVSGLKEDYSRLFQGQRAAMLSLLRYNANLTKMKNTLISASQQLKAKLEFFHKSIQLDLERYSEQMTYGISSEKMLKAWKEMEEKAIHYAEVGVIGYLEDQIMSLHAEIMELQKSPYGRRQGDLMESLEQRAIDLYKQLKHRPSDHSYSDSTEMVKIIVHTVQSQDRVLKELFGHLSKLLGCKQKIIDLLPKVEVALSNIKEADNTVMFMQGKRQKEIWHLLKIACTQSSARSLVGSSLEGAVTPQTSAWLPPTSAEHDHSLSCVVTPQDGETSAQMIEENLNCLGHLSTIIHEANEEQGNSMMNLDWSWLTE

Structure (SMILES) | %-inhibition of TXK ([1]; kinase TXK, compound at 1 μM) | %-inhibition of PKCδ ([2]; kinase PKCδ, 1 μM) | %-inhibition, BTK ([3]; kinase BTK, 1 μM compound) | %-inhibition of TRKB ([4]; kinase TRKB, 1 μM) | %-inhibition of IKKα ([5]; kinase IKKα, compound at 1 μM) | %-inhibition of TXK ([1]; 1 µM) | %-inhibition, BTK ([3]; 1 µM) | %-inhibition of PKCδ ([2]; 1 µM) | %-inhibition of TRKB ([4]; 1 µM) | %-inhibition of IKKα ([5]; 1 µM)
CC(C)(C)c1nc(-c2cccc(NS(=O)(=O)c3c(F)cccc3F)c2F)c(-c2ccnc(N)n2)s1 [dabrafenib] | 18% | -6% | 60% | 86% | – | – | – | – | – | –
CCCS(=O)(=O)Nc1ccc(F)c(C(=O)c2c[nH]c3ncc(-c4ccc(Cl)cc4)cc23)c1F [vemurafenib] | 5% | -5% | 2% | 11% | -1.89% | – | – | – | – | –
C[C@@H](Oc1cc(-c2cnn(C3CCNCC3)c2)cnc1N)c1c(Cl)ccc(F)c1Cl [crizotinib] | 39% | -1.14% | – | 102% | -1.78% | – | – | – | – | –
Cc1ccc(C(=O)Nc2ccc(CN3CCN(C)CC3)c(C(F)(F)F)c2)cc1C#Cc1cnc2cccnn12 [ponatinib] | 98% | 50% | 95% | 100% | 27% | – | – | – | – | –
O=S(=O)(c1cccc2cnccc12)N1CCCNCC1 [fasudil] | 1% | 19% | 1.51% | -2.66% | 8% | – | – | – | – | –
COc1cc(Nc2c(C#N)cnc3cc(OCCCN4CCN(C)CC4)c(OC)cc23)c(Cl)cc1Cl [bosutinib] | 72% | 63% | 97% | 62% | 1.66% | – | – | – | – | –
CO[C@H]1C[C@@H]2CC[C@@H](C)[C@@](O)(O2)C(=O)C(=O)N2CCCC[C@H]2C(=O)O[C@H]([C@H](C)C[C@@H]2CC[C@@H](OCCO)[C@H](OC)C2)CC(=O)[C@H](C)/C=C(\C)[C@@H](O)[C@@H](OC)C(=O)[C@H](C)C[C@H](C)/C=C/C=C/C=C/1C [everolimus] | -4.36% | -10% | 1.16% | -0.542% | -3.22% | – | – | – | – | –
Cc1ccc(Nc2nccc(N(C)c3ccc4c(C)n(C)nc4c3)n2)cc1S(N)(=O)=O [pazopanib] | 52% | -3% | 13% | – | -1.68% | – | – | – | – | –
CNC(=O)c1cc(Oc2ccc(NC(=O)Nc3ccc(Cl)c(C(F)(F)F)c3)c(F)c2)ccn1 [regorafenib] | -2.18% | 2.2% | 2.55% | 74% | -0.333% | – | – | – | – | –
CC(=O)Nc1cccc(-n2c(=O)n(C3CC3)c(=O)c3c(Nc4ccc(I)cc4F)n(C)c(=O)c(C)c32)c1 [trametinib] | -4.66% | -4.75% | 18% | -3.4% | 2.63% | – | – | – | – | –
CCN(CC)CCNC(=O)c1c(C)[nH]c(/C=C2\C(=O)Nc3ccc(F)cc32)c1C [sunitinib] | – | – | – | – | 0.813% | – | – | – | – | –
CO[C@H]1C[C@@H]2CC[C@@H](C)[C@@](O)(O2)C(=O)C(=O)N2CCCC[C@H]2C(=O)O[C@H]([C@H](C)C[C@@H]2CC[C@@H](OC(=O)C(C)(CO)CO)[C@H](OC)C2)CC(=O)[C@H](C)/C=C(\C)[C@@H](O)[C@@H](OC)C(=O)[C@H](C)C[C@H](C)/C=C/C=C/C=C/1C [temsirolimus] | -7% | -4% | 18% | 1.08% | 1.39% | – | – | – | – | –
CS(=O)(=O)CCNCc1ccc(-c2ccc3ncnc(Nc4ccc(OCc5cccc(F)c5)c(Cl)c4)c3c2)o1 [lapatinib] | – | -1.67% | – | -10% | -9% | 0.699% | – | – | – | –
COc1cc2c(Nc3ccc(Br)cc3F)ncnc2cc1OCC1CCN(C)CC1 [vandetanib] | 60% | -5.39% | – | 26% | -4.38% | – | – | – | – | –
COc1cc2nccc(Oc3ccc(NC(=O)C4(C(=O)Nc5ccc(F)cc5)CC4)cc3)c2cc1OC [cabozantinib] | 18% | -0.835% | 93% | – | -1.89% | – | – | – | – | –
N#CC[C@H](C1CCCC1)n1cc(-c2ncnc3[nH]ccc23)cn1 [ruxolitinib] | 10% | 2% | – | 88% | -2.5% | – | -6% | – | – | –
Cc1cn(-c2cc(NC(=O)c3ccc(C)c(Nc4nccc(-c5cccnc5)n4)c3)cc(C(F)(F)F)c2)cn1 [nilotinib] | 16% | – | 45% | – | 1.27% | – | – | -14% | 56% | –
C#Cc1cccc(Nc2ncnc3cc(OCCOC)c(OCCOC)cc23)c1 [erlotinib] | – | – | – | – | – | – | – | 5% | 0.183% | -5%
